Experiments:
[1] = test system: MMP1 expression from activated SFs (RASF); experiment: MMP assay: MMP1 expression (ELISA) by TNF-α-triggered RASFs; assay type: cell-based; settings: RASF triggered with TNFα, MMP1 ELISA after 48 hrs, semi-quantitative score
Procedure: A 384-well format ELISA for measurement of MMP1 is developed. Various primary antibodies are tested, as well as various ELISA protocols. The following protocol is developed and validated to measure MMP1 levels in SF supernatant in 384 well plates: white Lumitrac 600 384 well plates (Greiner) are coated with 2 μg/mL anti-MMP1 antibody MAB1346 (Chemicon). The antibody is diluted in buffer 40 (1.21 g Tris base (Sigma), 0.58 g NaCl (Calbiochem) and 5 mL 10% NaN3 (Sigma) in 1 L milliQ water and adjusted to pH 8.5). After overnight incubation at 4° C., plates are washed with PBS (80 g NaCl, 2 g KCl (Sigma), 11.5 g Na2HPO4.7H2O and 2 g KH2PO4 in 10 L milliQ; pH 7.4) and blocked with 100 μL/well Casein buffer (2% Casein (VWR International) in PBS). Next day, casein buffer is removed from ELISA plates and replaced by 50 μL/well EC buffer (4 g casein, 2.13 g Na2HPO4 (Sigma), 2 g bovine albumin (Sigma), 0.69 g NaH2PO4.H2O (Sigma), 0.5 g CHAPS (Roche), 23.3 g NaCl, 4 mL 0.5 M EDTA pH 8 (Invitrogen), 5 mL 10% NaN3 in 1 L milliQ and adjusted to pH 7.0). 0.25 mM DTT (Sigma) is added to the thawed sample plates. After removal of the EC buffer, 20 μL of sample is transferred to the ELISA plates. After overnight incubation at 4° C. plates are washed twice with PBS and once with PBST (PBS with 0.05% Tween-20 (Sigma)) and incubated with 35 μL/well biotinylated anti-MMP1 antibody solution (R&D). This secondary antibody is diluted in buffer C (0.82 g NaH2PO4.H2O, 4.82 g Na2HPO4, 46.6 g NaCl, 20 g bovine albumin and 4 ml, 0.5M EDTA pH 8 in 2 L milliQ and adjusted to pH 7.0) at a concentration of 5 μg/mL. After 2 h of incubation at RT, plates are washed as described above and incubated with 50 μL/well streptavidin-HRP conjugate (Biosource). Streptavidin-HRP conjugate is diluted in buffer C at a concentration of 0.25 μg/mL. After 45 min, plates are washed as described above and incubated for 5 min with 50 μL/well BM Chem ELISA Substrate (Roche). Readout is performed on the Luminoscan Ascent Luminometer (Labsystems) with an integration time of 200 msec or with an Envision reader (Perkin Elmer).
SFs were acquired at passage 1 from a commercial supplier (Cell applications, Inc.). SFs are cultured in DMEM supplemented with 10% heat-inactivated FBS, 1× penicillin/streptomycin (Invitrogen) at 37° C., 10% CO2 until passage 6. Aliquots of the cells are frozen and cryopreserved in liquid nitrogen. Starting from a cryopreserved aliquot, cells are further expanded by sub-culturing cells at 1/3 ratio every week. Cells between passage 10 and 12 are routinely used in compound testing according to the following protocol.
Starting from the compound master stocks (all at 10 mM concentration in 100% DMSO) a 3-fold serial dilution is made in 96-well plates in 100% DMSO. Then, plates are further diluted 45-fold in M199 medium supplemented with 1% heat-inactivated FBS to obtain a intermediate work stock.
At day 1, RASFs are seeded in 96 well plates (flat bottom, tissue culture treated, Greiner) at a density of 3000 cells/well in complete synovial growth medium (Cell Applications). Day 5, the medium is completely removed from the cells, and replaced by 81 μL of M199 medium supplemented with 1% heat-inactivated FBS followed by addition of 10 μL compound out of the intermediate work stock. After an incubation period of 90 minutes, which allows the compounds to equilibrate and enter the cells, cells are stimulated with either TNF-α or ‘complex trigger’. TNF-α trigger is added in a volume of […] to obtain final concentration of 10 ng/mL. For that, TNF-α stock (PeproTech) at 10 μg/mL was diluted to 100 ng/mL TNF-α in M199 medium supplemented with 1% FBS. ‘Complex trigger’ mix is added in a volume of 20 μL to obtain a final concentration of 12.5%. For that, ‘complex trigger’ mix, is diluted to 80% with M199 medium supplemented with 1% FBS. […]

TAK1-TAB1 fusion protein = target: T1, TAK1-TAB1 fusion protein (Homo sapiens, UniProt O43318); experiment: In vitro TAK1 kinase assay (33P-ATP, casein substrate); assay type: biochemical; settings: semi-quantitative score, at least two independent experiments
T1 construct: purchased Upstate 14-600
T1 sequence (O43318 with tags, fused parts or gaps limits assumed): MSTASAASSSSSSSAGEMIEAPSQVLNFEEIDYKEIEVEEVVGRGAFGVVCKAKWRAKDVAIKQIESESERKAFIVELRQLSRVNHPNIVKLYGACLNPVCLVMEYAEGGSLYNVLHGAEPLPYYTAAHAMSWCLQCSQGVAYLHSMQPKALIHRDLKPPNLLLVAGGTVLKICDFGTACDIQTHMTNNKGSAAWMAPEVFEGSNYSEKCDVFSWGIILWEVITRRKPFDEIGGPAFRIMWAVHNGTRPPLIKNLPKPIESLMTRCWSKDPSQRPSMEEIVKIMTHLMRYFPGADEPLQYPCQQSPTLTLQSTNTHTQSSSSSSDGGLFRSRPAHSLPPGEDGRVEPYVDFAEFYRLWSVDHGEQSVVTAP
Procedure: For assessing TAK1 inhibition, active TAK1-TAB1 fusion protein was used from Upstate (Cat. No, 14-600). Kinase reactions are set up in 96-well polypropylene plates in 25 μL containing 0.5 mU TAK1-TAB1 fusion protein, […], 0.01 μCi/μL [^33P]-γ-ATP, 0.1 mg/mL casein substrate in 1× reaction buffer containing 10 mM MOPS pH 7.0, 1 mM EDTA.
Starting from the compound master stocks (all at 10 mM concentration in 100% DMSO) a 3-fold serial dilution is made in 96-well plates in 100% DMSO. Plates are further diluted […] in H2O containing 3.5% DMSO, to obtain an intermediate work stock with compounds at 5× the final assay concentration in 5% DMSO.
5 μL of the intermediate stock is transferred into V-bottom 96 well polypropylene plates and 11 μL of Enzyme mix is added. Enzyme mix is made by combining 5 μL 5× reaction buffer ([…] pH 7.0, 1 mM EDTA), 5 μL casein (Sigma) diluted in H2O to 0.5 mg/mL and 1 μL of TAK1-TAB1 fusion protein that was prediluted to 0.5 mU/μL in 1× enzyme dilution buffer (20 mM MOPS pH 7.0, 0.1 mM EDTA, 0.01% Brij-35, 5% glycerol, 1 mM DTT, 1 mg/ml BSA).
The reactions are started by the addition of 9 μL of mixture containing ATP (20.83 uM) and [^33P]-γ-ATP (0.028 μCi/μL).
The assay is stopped 90 minutes after incubation at 30° C. by the addition of 25 μL phosphoric acid (150 mM). The label incorporated into the casein substrate is separated from labeled unincorporated ATP by filtration onto 96-well filter plates using a harvester device. After 6 washes with 75 mM phosphoric acid, the bottom of the filter plates are sealed, and incorporated label is quantified after addition of 40 μL scintillation fluid using TopCount.
Based on these percent inhibition data obtained in at least two independent experiments for the compounds, compounds are ranked using semi-quantitative scores. Table A below lists a number of compounds which have been or can be prepared according to the synthetic methods described herein. Semi-quantitative score: • *>3001 nM • ** 1001-3000 nM • *** 101-1000 nM • ****<100 nM

CC(C)N1CCN(c2ccc(Nc3ccc(-c4cn[nH]c4)n4ccnc34)cc2)CC1 [Compound 6, [4-(4-Isopropyl-piperazin-1-yl)-phenyl]-[5-(1H-pyrazol-4-yl)-imidazo[1,2-a]pyridin-8-yl]-amine]
EC50 [1]: 0.101 to 1 µM | IC50 (TAK1-TAB1 fusion protein): 0.101 to 1 µM

CN1CCN(c2ccc(Nc3ccc(-c4cn[nH]c4)n4ccnc34)c(F)c2)CC1 [Compound 7, [2-Fluoro-4-(4-methyl-piperazin-1-yl)-phenyl]-[5-(1H-pyrazol-4-yl)-imidazo[1,2-a]pyridin-8-yl]amine]
EC50 [1]: 0.101 to 1 µM | IC50 (TAK1-TAB1 fusion protein): 0.101 to 1 µM

CC(C)N1CCN(c2ccc(Nc3ccc(-c4csc(C(N)=O)c4)n4ccnc34)cc2)CC1 [Compound 8, 4-{8-[4-(4-Isopropyl-piperazin-1-yl)-phenylamino]-imidazo[1,2-a]pyridin-5-yl}-thiophene-2-carboxylic acid amide]
EC50 [1]: 0.101 to 1 µM | IC50 (TAK1-TAB1 fusion protein): 0.101 to 1 µM

CC(C)N1CCN(c2ccc(Nc3ccc(-c4csc(C(N)=O)c4)n4ccnc34)cc2F)CC1 [Compound 9, 4-{8-[3-Fluoro-4-(4-isopropyl-piperazin-1-yl)-phenylamino]-imidazo[1,2-a]pyridin-5-yl}-thiophene-2-carboxylic acid amide]
EC50 [1]: 1 to 3 µM | IC50 (TAK1-TAB1 fusion protein): 1 to 3 µM

CC(C)N1CCN(c2ccc(Nc3ccc(-c4ccc(C(N)=O)cc4)n4ccnc34)cc2)CC1 [Compound 10, 4-{8-[4-(4-Isopropyl-piperazin-1-yl)-phenylamino]-imidazo[1,2-a]pyridin-5-yl}-benzamide]
EC50 [1]: 0.101 to 1 µM | IC50 (TAK1-TAB1 fusion protein): 0.101 to 1 µM

CC(C)N1CCN(c2ccc(Nc3ccc(-c4ccc(C(N)=O)cc4)n4ccnc34)cc2F)CC1 [Compound 11, 4-{8-[3-Fluoro-4-(4-isopropyl-piperazin-1-yl)-phenylamino]-imidazo[1,2-a]pyridin-5-yl}-benzamide]
EC50 [1]: > 3 µM | IC50 (TAK1-TAB1 fusion protein): 0.101 to 1 µM

CC(C)N1CCN(c2ccc(Nc3ccc(-c4ccc5c(c4)CNC5=O)n4ccnc34)cc2)CC1 [Compound 12, 5-{8-[4-(4-Isopropyl-piperazin-1-yl)-phenylamino]-imidazo[1,2-a]pyridin-5-yl}-2,3-dihydro-isoindol-1-one]
EC50 [1]: 0.101 to 1 µM | IC50 (TAK1-TAB1 fusion protein): < 0.1 µM

O=C1NCc2cc(-c3ccc(Nc4ccc(N5CCOCC5)cc4)c4nccn34)ccc21 [Compound 13, 5-(8-(4-morpholinophenyl-amino)imidazo [1,2-a]pyridin-5-yl)isoindolin-1-one]
EC50 [1]: 1 to 3 µM | IC50 (TAK1-TAB1 fusion protein): 0.101 to 1 µM

CN(C)C(=O)c1ccc(Nc2ccc(-c3ccc4c(c3)CNC4=O)n3ccnc23)cc1 [Compound 14, N,N-dimethyl-4-(5-(1-oxoisoindolin-5-yl)imidazo[1,2-a]pyridin-8-ylamino)benzamide]
EC50 [1]: > 3 µM | IC50 (TAK1-TAB1 fusion protein): 0.101 to 1 µM

O=C1NCc2cc(-c3ccc(Nc4ccc(C(=O)N5CCOCC5)cc4)c4nccn34)ccc21 [Compound 15, 5-(8-(4-(morpholine-4-carbonyl)phenyl-amino)imidazo[1,2-a]pyridin-5-yl)isoindolin-1-one]
EC50 [1]: > 3 µM | IC50 (TAK1-TAB1 fusion protein): 0.101 to 1 µM

O=C1NCc2cc(-c3ccc(Nc4ccc(S(=O)(=O)N5CCOCC5)cc4)c4nccn34)ccc21 [Compound 16, 5-(8-(4-(morpholinosulfonyl)phenylamino)imidazo[1,2-a]pyridin-5-yl)isoindolin-1-one]
EC50 [1]: > 3 µM | IC50 (TAK1-TAB1 fusion protein): 0.101 to 1 µM

O=C(Nc1ccccc1)c1ccc(Nc2ccc(-c3ccc4c(c3)CNC4=O)n3ccnc23)cc1 [Compound 17, 4-(5-(1-oxoisoindolin-5-yl)imidazo[1,2-a]pyridin-8-ylamino)-N-phenylbenzamide]
EC50 [1]: > 3 µM | IC50 (TAK1-TAB1 fusion protein): 1 to 3 µM

CS(=O)(=O)c1ccc(Nc2ccc(-c3ccc4c(c3)CNC4=O)n3ccnc23)cc1 [Compound 18, 5-(8-(4-(methylsulfonyl)phenylamino)imi-dazo[1,2-a]pyridin-5-yl)isoindolin-1-one]
EC50 [1]: > 3 µM | IC50 (TAK1-TAB1 fusion protein): 0.101 to 1 µM

CC(C)N1CCC(c2ccc(Nc3ccc(-c4ccc5c(c4)CNC5=O)n4ccnc34)cc2)CC1 [Compound 19, 5-(8-(4-(1-isopropyl-piperidin-4-yl)phenylamino)imidazo[1,2-a]pyridin-5-yl)isoindolin-1-one]
EC50 [1]: 0.101 to 1 µM | IC50 (TAK1-TAB1 fusion protein): < 0.1 µM

CN(C)S(=O)(=O)c1ccc(Nc2ccc(-c3ccc4c(c3)CNC4=O)n3ccnc23)cc1 [Compound 20, N,N-dimethyl-4-(5-(1-oxoisoindolin-5-yl)imidazo[1,2-a]pyridin-8-ylamino)benzene sulfonamide]
EC50 [1]: 0.101 to 1 µM | IC50 (TAK1-TAB1 fusion protein): 0.101 to 1 µM

O=C1NCc2cc(-c3ccc(Nc4ccc(S(=O)(=O)c5ccccc5)cc4)c4nccn34)ccc21 [Compound 21, 5-(8-(4-(phenylsulfonyl)phenylamino)imi-dazo[1,2-a]pyridin-5-yl)isoindolin-1-one]
EC50 [1]: 0.101 to 1 µM | IC50 (TAK1-TAB1 fusion protein): 0.101 to 1 µM

Source: US20120010206A1, “IMIDAZOLOPYRIDINE COMPOUNDS USEFUL FOR THE TREATMENT OF DEGENERATIVE AND INFLAMMATORY DISEASES” (priority 2006, published 2012)
